One data set has as its system Target C mRNA. The data set is described as follows: Splicing RT-qPCR panel, Target C canonical junction (CJ) mRNA. The following applies: Homo sapiens, read-out: Target C CJ (decrease in CJ mRNA levels, IC50). Type of data set: cell-based, human. Put shortly: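 A673 cells (DMEM, 10% FBS) or K562 cells (IMDM, 10% FBS) treated 24 h at 37 °C with an 11-point 3-fold dilution, top 10 uM, DMSO ≤0.25%. Canonical-junction mRNA quantified in lysates by RT-qPCR, normalised to GAPDH, GUSB or PPIA and to DMSO (2^−ΔΔCt), then converted to % response.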
For orientation: In qPCR the cycle at which signal appears reflects the starting amount.

A further data set has as its system Target C. Nature of the data set: HiBiT protein abundance assay, Target C (K562 HiBiT knock-in). Type of data set: cell-based, human. The following applies: HiBiT knock-in cells, 24 hours. The procedure, abridged:
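K562 HiBiT knock-in cells (10000/well) in IMDM + 1% FBS were treated for 24 h at 37° C. with a 10-point 3-fold dilution series (top 10 μM final), with DMSO ≤0.25%. Unmodified K562 served as baseline. HiBiT lytic luminescence was normalized to controls, and IC50 was interpolated at 50% from a four-parameter fit.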
(With HiBiT, luminescence reflects the tagged protein that the partner subunit can reach.)

The test system of another data set is HiBiT-tagged HTT protein. Nature of the data set: HiBiT protein abundance assay, HTT (K562 HiBiT knock-in). Conditions: HiBiT knock-in cells, 24 hours. Type of data set: cell-based, human. The procedure, abridged: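 Endogenously HiBiT-tagged K562 knock-in lines treated 24 h at 37 °C with 10-point 3-fold dilutions (top 10 μM final, DMSO ≤0.25%) in IMDM+1% FBS. Lytic Nano-Glo luminescence normalized to DMSO and unmodified K562 controls; four-parameter fit gives 50%-abundance concentration (IC50).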

The test system of a further data set is K562 cells. The data set is described as follows: Cell viability, Cell Titer Glo 2.0 assay, K562. Conditions: 72 hours. In general terms: ATP-based viability assays read luminescence as a measure of living cells.

A value given as a limit tells only on which side of the number the result lay.

Consider `Cc1cn2nc(-c3ccc4cc(N5C[C@@H](C)N[C@@H](C)C5)cnc4n3)cc(C)c2n1` [Compound 330], for which the IC50 with Target C mRNA, in the data set on Target C and in the data set on HiBiT-tagged HTT protein was 100 to 1000 nM throughout. Also, the “Effect on Cell Viability, K562” value in the data set on K562 cells is reported as “B (100-1000 nM)”.
For `Cc1cn2nc(-c3cc(Cl)c4cc(N5C[C@@H](C)N[C@@H](C)C5)cnc4n3)cc(C)c2n1` [Compound 335, 4-chloro-2-{2,8-dimethylimidazo[1,2-b]478pyridazine-6-yl}-6-[(3R,5S)-3,5-dimethylpiperazin-1-yl]-1,8-naphthyridine], the IC50 with Target C mRNA fell in the range of 1000 to 10000 nM; in the data set with Target C, 1000 to 10000 nM; with HiBiT-tagged HTT protein, 100 to 1000 nM. The “Effect on Cell Viability, K562” value in the data set on K562 cells is recorded as “B (100-1000 nM)”.
For `Cc1cn2nc(-c3cc(Cl)c4cc(N5C[C@H](C)N[C@@H](C)C5)cnc4n3)cc(C)c2n1` [Compound 336], the IC50 in the data set on Target C mRNA was in the range of 1000 to 10000 nM; in the data set with Target C, 100 to 1000 nM; in the data set on HiBiT-tagged HTT protein, 100 to 1000 nM. The “Effect on Cell Viability, K562” value in the data set with K562 cells was “B (100-1000 nM)”.
As to `CN[C@H]1CCN(c2cnc3nc(-c4cc(C)c5nc(C)cn5n4)cc(Cl)c3c2)C1` [Compound 340], the IC50 in the data set on Target C mRNA is 1000 to 10000 nM; in the data set with Target C, 100 to 1000 nM; in the data set on HiBiT-tagged HTT protein it was under 100 nM. The “Effect on Cell Viability, K562” value in the data set with K562 cells is listed as “B (100-1000 nM)”.
The corresponding values for `CN[C@@H]1CCN(c2cnc3nc(-c4cc(C)c5nc(C)cn5n4)cc(Cl)c3c2)C1` [Compound 341] are 100 to 1000 nM, under 100 nM, under 100 nM and “A (<100 nM)”.
Turning to `C[C@@H]1CN(c2cnc3nc(-c4cc5cn(C)nc5cc4O)ccc3c2)C[C@H](C)N1` [Compound 343], the IC50 with Target C mRNA, in the data set on Target C and in the data set on HiBiT-tagged HTT protein was 1000 to 10000 nM in each case. The “Effect on Cell Viability, K562” value with K562 cells is recorded as “B (100-1000 nM)”.
As to `Cc1cn2nc(-c3cc(Cl)c4cc(N5CCC(N(C)C)CC5)cnc4n3)cc(C)c2n1` [Compound 348], the IC50 with Target C mRNA is 1000 to 10000 nM; in the data set on Target C, 100 to 1000 nM; with HiBiT-tagged HTT protein it was 100 to 1000 nM. Also, the “Effect on Cell Viability, K562” value in the data set with K562 cells is listed as “B (100-1000 nM)”.
For the compound `Cc1cn2nc(-c3cc(Cl)c4cc(N5CCC(N6CCC6)CC5)cnc4n3)cc(C)c2n1` [Compound 349], the IC50 in the data set on Target C mRNA, in the data set on Target C and in the data set with HiBiT-tagged HTT protein was 100 to 1000 nM each time. Further, in the data set with K562 cells, the “Effect on Cell Viability, K562” value is “B (100-1000 nM)”.
Take `Cc1cn2cc(-c3ccc4cc(N5C[C@@H](C)N[C@@H](C)C5)cnc4n3)cc(F)c2n1` [Compound 350]: the IC50 was over 10000 nM in the data set with Target C mRNA, 1000 to 10000 nM with Target C and 1000 to 10000 nM with HiBiT-tagged HTT protein. In addition, the “Effect on Cell Viability, K562” value in the data set with K562 cells is recorded as “C (1000-9999 nM)”.
Turning to `Cc1c(O)c(-c2cc(Cl)c3cc(N4CCNC5(CC5)C4)cnc3n2)cc2cn(C)nc12` [Compound 381], the IC50 with Target C mRNA lay within 1000 to 10000 nM; in the data set with Target C, 1000 to 10000 nM; with HiBiT-tagged HTT protein it was 100 to 1000 nM. Moreover, the “Effect on Cell Viability, K562” value in the data set on K562 cells is “B (100-1000 nM)”.
For the compound `Cc1cn2nc(-c3ccc4c(Cl)c(N5C[C@H](C)N[C@@H](C)C5)cnc4n3)cc(C)c2n1` [Compound 393, 5-chloro-2-{2,8-dimethylimidazo[1,2-b]pyridazin-6-yl}-6-[(3S,5S)-3,5-dimethylpiperazin-1-yl]-1,8-naphthyridine], the IC50 in the data set with Target C mRNA fell in the range of 1000 to 10000 nM; in the data set with Target C, 100 to 1000 nM; with HiBiT-tagged HTT protein, 100 to 1000 nM. The “Effect on Cell Viability, K562” value with K562 cells is listed as “B (100-1000 nM)”.

What is called IC50 is the concentration at which inhibition is half-maximal.

(Values after patent publication US20250326748A1, “COMPOUNDS AND METHODS FOR MODULATING SPLICING” (REMIX THERAPEUTICS INC., priority 2022, published 2025).)
